We go through two compounds from article PMC6715447 (Science (New York, N.Y.), 2019).

Broadly, the IC50 is the concentration needed to halve the response being measured.

The experiment has as its target T1, cysteamine (2-aminoethanethiol) dioxygenase (ADO) (Homo sapiens, UniProt Q96SZ5).
T1 sequence (Q96SZ5 1-270): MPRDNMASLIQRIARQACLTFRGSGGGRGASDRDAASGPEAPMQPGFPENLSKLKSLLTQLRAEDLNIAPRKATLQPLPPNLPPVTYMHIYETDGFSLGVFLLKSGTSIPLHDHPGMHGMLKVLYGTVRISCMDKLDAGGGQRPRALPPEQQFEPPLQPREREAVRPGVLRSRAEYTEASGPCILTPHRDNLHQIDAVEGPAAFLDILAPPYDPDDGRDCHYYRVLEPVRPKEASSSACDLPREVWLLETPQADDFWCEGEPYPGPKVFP
Description: competition of N-Cys peptide dioxygenation by recombinant ADO. The class given is biochemical.

Regarding `N[C@@H](CS)C(=O)O` [cysteine], the 50% inhibitory concentration (IC50) was found to be 13 mM.
In the case of `NCCS` [cysteamine] it was 37 mM.
